Test [1] deals with Endothelial PAS domain-containing protein 1 (Homo sapiens) (UniProt Q99814). As to the kind of experiment: potency against HIF reporters across cell lines – luminescence, panel, selectivity assay for HIF-2a inhibitor project, dose response (AID 651581). Conditions: human cell HIF reporter.
Test [2] has as its target Hypoxia-inducible factor 1-alpha (Homo sapiens) (UniProt Q16665). Described as above. The following applies: human cell HIF reporter, HIF-1a.

SMILES strings stand for the structures. The source made the active and inactive calls. The rule behind the calls is not given here.

Consider 12 compounds from PubChem BioAssay AID651581 (Sanford-Burnham Center for Chemical Genomics, 2012).

Chain of Hypoxia-inducible factor 1-alpha (Homo sapiens) (Q16665 whole entry, looked up): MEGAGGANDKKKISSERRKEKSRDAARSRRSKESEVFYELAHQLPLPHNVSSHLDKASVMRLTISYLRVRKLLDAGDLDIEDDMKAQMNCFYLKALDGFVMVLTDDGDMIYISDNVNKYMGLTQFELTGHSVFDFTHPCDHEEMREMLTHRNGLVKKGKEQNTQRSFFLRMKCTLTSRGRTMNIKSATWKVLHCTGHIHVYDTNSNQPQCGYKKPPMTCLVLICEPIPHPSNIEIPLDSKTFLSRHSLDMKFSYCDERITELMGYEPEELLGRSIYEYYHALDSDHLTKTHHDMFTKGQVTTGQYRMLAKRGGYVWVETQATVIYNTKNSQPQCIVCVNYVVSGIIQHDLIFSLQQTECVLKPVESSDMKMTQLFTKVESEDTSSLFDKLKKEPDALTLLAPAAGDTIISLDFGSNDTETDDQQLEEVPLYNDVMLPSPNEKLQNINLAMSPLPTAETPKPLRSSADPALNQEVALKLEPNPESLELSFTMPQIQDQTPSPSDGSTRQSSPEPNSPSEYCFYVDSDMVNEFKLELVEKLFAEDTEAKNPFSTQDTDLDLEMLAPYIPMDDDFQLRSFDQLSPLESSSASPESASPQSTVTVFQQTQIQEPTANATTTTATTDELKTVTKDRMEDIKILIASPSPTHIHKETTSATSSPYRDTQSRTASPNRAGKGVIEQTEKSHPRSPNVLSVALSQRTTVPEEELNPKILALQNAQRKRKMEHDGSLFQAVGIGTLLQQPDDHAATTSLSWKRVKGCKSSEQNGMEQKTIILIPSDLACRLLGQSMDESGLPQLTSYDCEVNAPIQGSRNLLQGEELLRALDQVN

The term IC50 denotes the concentration that inhibits the measured activity by half. For the compound `CN(C)S(=O)(=O)c1cccc(NC(=O)CSc2cccc3cccnc23)c1`, the IC50 in test [1] (HIF-2a PANC, mean of runs) was > 99 µM (inactive); in test [1] (HIF-2a PANC, run 1) it was > 99 µM; in test [1] (HIF-2a PANC, run 2), > 99 µM; in test [1] (HIF-2a, mean of runs), 5.4 µM; in test [1] (HIF-2a, run 1), 5.2 µM; in test [1] (HIF-2a, run 2), 5.6 µM. In addition, the results for the concentration for half-maximal inhibition (IC50) in test [2] (mean of runs), in test [2] (run 1) and in test [2] (run 2) were 34.4 µM, 31.1 µM and 37.7 µM, respectively.
With `Cc1nc2cc(-c3ccccc3)nn2c(C)c1CCC(=O)NC(C)c1ccc2c(c1)OCCO2` (configuration not stated), the IC50 in test [1] (HIF-2a PANC, mean of runs) was 2.4 µM; in test [1] (HIF-2a PANC, run 1), 2.9 µM; in test [1] (HIF-2a PANC, run 2), 1.91 µM; in test [1] (HIF-2a, mean of runs), 3.26 µM; in test [1] (HIF-2a, run 1), 3.59 µM; in test [1] (HIF-2a, run 2) it was 2.92 µM. For the same compound, the values for the IC50 in test [2] (mean of runs), in test [2] (run 1) and in test [2] (run 2) were 24.3 µM, 3.84 µM and 44.7 µM, respectively.
In the case of `COc1ccc(/C=N\n2nnc3ccccc32)cc1`, the IC50 in test [1] (HIF-2a PANC, mean of runs) was 7.03 µM; in test [1] (HIF-2a PANC, run 1), 7.48 µM; in test [1] (HIF-2a PANC, run 2), 6.58 µM; in test [1] (HIF-2a, mean of runs), < 30 µM (inactive); in test [1] (HIF-2a, run 1) it was < 30 µM; in test [1] (HIF-2a, run 2), < 30 µM. Also, the IC50 in test [2] (mean of runs) was < 30 µM (inactive); in test [2] (run 1) it was < 30 µM; in test [2] (run 2) it was < 30 µM.
For the compound `CC(=O)N(C(C)=O)c1ccc(Oc2ccc(Oc3ccc(N(C(C)=O)C(C)=O)cc3)cc2)cc1`, the IC50 was 1.51 µM in test [1] (HIF-2a PANC, mean of runs); 1.86 µM in test [1] (HIF-2a PANC, run 1); 1.15 µM in test [1] (HIF-2a PANC, run 2); > 99 µM in test [1] (HIF-2a, run 1); 1.58 µM in test [1] (HIF-2a, run 2); 12.2 µM in test [2] (run 1). The compound further showed an IC50 in test [2] (run 2) of 20.3 µM. For the same compound, in test [2] (mean of runs), the IC50 entry is “inactive”.
Take `CC(=O)c1ccc(NC(=O)c2cnn3ccccc23)cc1`: the IC50 in test [1] (HIF-2a PANC, mean of runs) is 18.4 µM; in test [1] (HIF-2a PANC, run 1), 20.3 µM; in test [1] (HIF-2a PANC, run 2), 16.6 µM; in test [1] (HIF-2a, run 1) it was 11.7 µM; in test [1] (HIF-2a, run 2) it was 9.93 µM; in test [2] (run 1), 12.9 µM. In test [2] (run 2), this compound showed an IC50 of 20.6 µM. For the same compound, the IC50 entry in test [1] (HIF-2a, mean of runs) is “inactive”; in test [2] (mean of runs) it was “inactive”.
On to `Cc1ccc(C(C)C)c(OCc2ccc(C(=O)N/N=C/c3ccc(C(=O)O)cc3)cc2)c1`, for which the IC50 in test [1] (HIF-2a PANC, mean of runs) is 0.378 µM; in test [1] (HIF-2a PANC, run 1), 0.507 µM; in test [1] (HIF-2a PANC, run 2) it was 0.248 µM; in test [1] (HIF-2a, mean of runs) it was 0.45 µM; in test [1] (HIF-2a, run 1), 0.421 µM; in test [1] (HIF-2a, run 2) it was 0.479 µM. For the same compound, the IC50 in test [2] (run 1) and in test [2] (run 2) was > 99 µM each time.
Consider `O=Cc1cn(Cc2cccc([N+](=O)[O-])c2)c2ccccc12`, for which the IC50 in test [1] (HIF-2a PANC, mean of runs) was > 99 µM (inactive); in test [1] (HIF-2a PANC, run 1), > 99 µM; in test [1] (HIF-2a PANC, run 2), > 99 µM; in test [1] (HIF-2a, mean of runs), 0.978 µM; in test [1] (HIF-2a, run 1), 0.982 µM; in test [1] (HIF-2a, run 2), 0.975 µM. Besides, the IC50 in test [2] (run 1) and in test [2] (run 2) was > 99 µM each time.
On to `O=C(Nc1ccc(NC(=S)NC(=O)c2ccco2)cc1)c1ccc(Br)cc1`, for which the IC50 in test [1] (HIF-2a PANC, mean of runs) is > 99 µM (inactive); in test [1] (HIF-2a PANC, run 1) it was > 99 µM; in test [1] (HIF-2a PANC, run 2) it was > 99 µM; in test [1] (HIF-2a, mean of runs) it was 1.02 µM; in test [1] (HIF-2a, run 1), 1.18 µM; in test [1] (HIF-2a, run 2) it was 0.871 µM. Besides, the IC50 in test [2] (run 1) was 0.639 µM; in test [2] (run 2), > 99 µM.
As to `COc1ccc(OC)c(S(=O)(=O)ON2C(=O)c3ccccc3C2=O)c1`, the IC50 in test [1] (HIF-2a PANC, mean of runs) was > 99 µM (inactive); in test [1] (HIF-2a PANC, run 1), > 99 µM; in test [1] (HIF-2a PANC, run 2), > 99 µM; in test [1] (HIF-2a, mean of runs) it was 8.27 µM; in test [1] (HIF-2a, run 1), 9.25 µM; in test [1] (HIF-2a, run 2), 7.3 µM. Further, the IC50 in test [2] (run 1) and in test [2] (run 2) was > 99 µM each time.
For `CC(=O)Nc1ccc(OCC(=O)c2ccc(C)cc2C)cc1`, the IC50 in test [1] (HIF-2a PANC, mean of runs) is 4.2 µM; in test [1] (HIF-2a PANC, run 1) it was 3.04 µM; in test [1] (HIF-2a PANC, run 2), 5.37 µM; in test [1] (HIF-2a, mean of runs), 2.47 µM; in test [1] (HIF-2a, run 1) it was 2.75 µM; in test [1] (HIF-2a, run 2), 2.19 µM. Also, the IC50 was 46.2 µM in test [2] (mean of runs), 4.55 µM in test [2] (run 1) and 87.9 µM in test [2] (run 2).
Regarding `Cc1c(CCC(=O)N2CCC[C@H]2C(=O)O)c(=O)oc2c(C)c3oc4c(c3cc12)CCCC4`, the IC50 in test [1] (HIF-2a PANC, mean of runs) was 1.72 µM; in test [1] (HIF-2a PANC, run 1) it was 1.8 µM; in test [1] (HIF-2a PANC, run 2) it was 1.64 µM; in test [1] (HIF-2a, mean of runs), 4.13 µM; in test [1] (HIF-2a, run 1), 4.63 µM; in test [1] (HIF-2a, run 2), 3.63 µM. The IC50 is 44.7 µM in test [2] (mean of runs), 72.4 µM in test [2] (run 1) and 17 µM in test [2] (run 2).
For the compound `O=C(Nc1ccc(NC(=O)c2ccco2)cc1)c1ccc2c(c1)OCCO2`, the IC50 in test [1] (HIF-2a PANC, mean of runs) was 11.2 µM; in test [1] (HIF-2a PANC, run 1), 10.1 µM; in test [1] (HIF-2a PANC, run 2), 12.4 µM; in test [1] (HIF-2a, mean of runs) it was 7.76 µM; in test [1] (HIF-2a, run 1), 8.03 µM; in test [1] (HIF-2a, run 2), 7.48 µM. Besides, the IC50 in test [2] (run 1) is > 99 µM; in test [2] (run 2), 86 µM.
